In assay [1] the test system is HT-29 cells (human colon carcinoma cell line). As to the kind of experiment: MTT anti-proliferation assay on HT-29 cells. It counts as cell-based. Particulars: 384 well plates, 5 days, read-out: IC50 HT29 384. An excerpt: MTT (3-(4,5-dimethylthiazol-2-yl)-2,5-diphenyl tetrazolium bromide) is widely used for the quantitative determination of cytotoxic effects or in vitro chemosensitivity of tumor cells. The assay is based on the cleavage of the yellow tetrazolium salt (MTT) to purple formazan crystals by metabolic active cells. For details, see Rubinstein, L. V., et al., J. Natl. Cancer Inst. 82 (1990) 1113.
We proceeded as follows: HT-29 cells (human colon carcinoma cell line) were cultivated in RPMI 1640, 2.5% FCS, 2 mM glutamine, 100 u/ml penicillin, 100 ug/ml streptomycin. For the assay the cells were seeded in 384 well plates, 900 cells per well, in the same medium. At the next day, the compounds (dissolved 10 mM in DMSO) were added in various concentrations ranging from 30 uM to 1.5 nM. After 5 days, the MTT assay was done mainly according to the instructions of the manufacturer (Cell proliferation kit I, MTT, from Roche Molecular Biochemicals). In brief: MTT labeling reagent was added to a final concentration of 0.5 mg/ml, added and incubated for 4 hrs at 37° C., 5% CO2. During this incubation time purple formazan crystals are formed. After addition of the solubilization solution (20% SDS in 0.02 M HCl) the plates were incubated overnight at 37° C., 5% CO2. After careful mixing, the plates were measured in Victor 2 (scanning multiwell spectrophotometer, Wallac) at 550 nm.
A decrease in number of living cells results in a decrease in the total metabolic activity in the sample. The decrease directly correlates to the amount of purple color resulting from the solubilization of the purple formazan crystals. Determination of IC50 was done using XL-fit.
On the technique in general: Tetrazolium dyes change colour on reduction, which living cells bring about.

The target in another assay is T1, recombinant HDAC-1 (Homo sapiens, UniProt Q13547).
T1 construct: made in house; host or cells: HEK 293 cells
As to the kind of experiment: HDAC biochemical quench assay. The conditions noted are these: recombinant HDAC-1 purified from HEK 293 cells, 1 uM peptide substrate, 90 min at room temperature. An excerpt:
The function of histone deacetylase (HDAC) is the deacetylation of lysines in e.g. histone H4. A peptide of 17 amino acids derived from histone H4 was labeled with TAMRA at the C-terminus and QSY-7 at the N-terminus and was used as a substrate (TAMRA-first17 aa of histone H4-QSY7). Following deacetylation by HDAC, the enzyme Lys C is able to cleave the peptide after lysine. […] Inhibition of HDAC by compounds results in low signals because Lys C could not cleave the substrate and the quench effect persists.
For dose response curves, 10 concentrations were diluted 1:3 starting at 30 uM. 10 ul compound dilution were put into each well of a 384 well plate. 10 ul HDAC were added (recombinant HDAC-1 purified from HEK 293 cells; enzyme activity has to be assessed for each preparation). 10 ul peptide substrate was added (1 uM final concentration, derived from 1 mM stock solution diluted 1:1000 in test buffer). After 90 min incubation at room temperature, the reaction was stopped by addition of 20 ul test buffer including 3 ug/ml Lys C and 0.075% SDS. After overnight incubation the fluorescence signal of TAMRA was measured (Victor 2 from Wallac, absorption 544 nm, emission 590 nm). The O.D. of DMSO-treated control wells is 100%, the % inhibition of compound treated wells is calculated in relation to 100%. Based on 10 concentrations a IC50 curve is generated by using XL.fit3.
Test buffer used: a mixture of 10 mM Hepes pH8, 10 mM NaCl, 10% Glycerol, 0.005% Triton X100, 0.1 mM EDTA, 0.1 mM TCEP. As plates were used 384 well plates (black, Greiner, 781077).

Molecules are shown by their SMILES. Read-outs that look alike come from different tables or passages of the source.

T1 sequence (Q13547 whole entry, species assumed): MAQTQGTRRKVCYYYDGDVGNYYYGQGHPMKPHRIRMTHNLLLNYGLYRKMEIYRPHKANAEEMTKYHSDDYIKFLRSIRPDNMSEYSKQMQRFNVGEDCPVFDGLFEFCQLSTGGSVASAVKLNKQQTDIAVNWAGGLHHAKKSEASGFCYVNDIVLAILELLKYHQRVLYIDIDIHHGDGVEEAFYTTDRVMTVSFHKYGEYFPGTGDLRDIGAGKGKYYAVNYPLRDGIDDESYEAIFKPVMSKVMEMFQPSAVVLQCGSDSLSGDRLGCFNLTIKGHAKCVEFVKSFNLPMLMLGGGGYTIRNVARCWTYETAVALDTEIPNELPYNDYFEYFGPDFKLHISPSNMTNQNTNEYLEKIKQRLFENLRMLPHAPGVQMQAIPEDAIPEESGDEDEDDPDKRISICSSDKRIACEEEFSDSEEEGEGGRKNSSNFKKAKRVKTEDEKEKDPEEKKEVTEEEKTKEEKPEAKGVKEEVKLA

`C[C@@H](NC(=O)c1ccc(C(=O)NO)s1)c1ccc(C(F)(F)F)cc1` [Example 8d, (R)-thiophene-2,5-dicarboxylic acid 2-hydroxyamide 5-{[1-(4-trifluoromethyl-phenyl)-ethyl]-amide}]: the IC50 in assay [1] (Homo sapiens, 120 h) was found to be 30 nM; at recombinant HDAC-1 it was 1.26 nM. Regarding `O=C(NO)c1ccc(C(=O)N[C@H]2CCc3ccccc32)s1` [Example 4m, (S)-thiophene-2,5-dicarboxylic acid 2-hydroxyamide 5-indan-1-ylamide], the IC50 on recombinant HDAC-1 stood at 2.97 nM.

Take `C[C@H](NC(=O)c1ccc(C(=O)NO)s1)c1ccc(Cl)cc1` [Example 4c, (S)-thiophene-2,5-dicarboxylic acid 2-{[1-(4-chloro-phenyl)-ethyl]-amide}5-hydroxyamide]: in assay [1], the IC50 was found to be 840 nM. `C[C@@H](NC(=O)c1ccc(C(=O)NO)s1)c1ccc2ccccc2c1` [Example 2f, (R)-thiophene-2,5-dicarboxylic acid 2-hydroxyamide 5-[(1-naphthalen-2-yl-ethyl)-amide]]: the IC50 in assay [1] (Homo sapiens, 120 h) stood at 10 nM; at recombinant HDAC-1, 4.97 nM. On to `O=C(NO)c1ccc(C(=O)N[C@@H](Cc2ccccc2)c2ccccc2)s1` [Example 10f, (S)-thiophene-2,5-dicarboxylic acid 2-[(1,2-diphenyl-ethyl)-amide]5-hydroxyamide], for which the IC50 in assay [1] (Homo sapiens, 120 h) stood at 40 nM; at recombinant HDAC-1, 0.58 nM. Taken in the same sequence, the figures for `C[C@@H](NC(=O)c1ccc(C(=O)NO)s1)c1cccs1` [Example 7, (R)-Thiophene-2,5-dicarboxylic Acid 2-hydroxyamide 5-[(1-thiophen-2-yl-ethyl)-amide]] were 60 nM and 1.66 nM. For `COc1ccc([C@@H](C)NC(=O)c2ccc(C(=O)NO)s2)cc1` [Example 2i, (R)-thiophene-2,5-dicarboxylic acid 2-hydroxyamide 5-{[1-(4-methoxy-phenyl)-ethyl]-amide}], the half-inhibitory concentration (IC50) in assay [1] (Homo sapiens, 120 h) amounted to 50 nM; at recombinant HDAC-1, 1.79 nM. Turning to `CC[C@@H](NC(=O)c1ccc(C(=O)NO)s1)c1ccccc1` [Example 2g, (R)-thiophene-2,5-dicarboxylic acid 2-hydroxyamide 5-[(1-phenyl-propyl)-amide]], the IC50 was 60 nM in assay [1] (Homo sapiens, 120 h) and 1.18 nM at recombinant HDAC-1.

Consider `COC[C@H](NC(=O)c1ccc(C(=O)NO)s1)c1ccccc1` [Example 2l, (R)-thiophene-2,5-dicarboxylic acid 2-hydroxyamide 5-[(2-methoxy-1-phenyl-ethyl)-amide]], for which the IC50 in assay [1] (Homo sapiens, 120 h) came out at 580 nM; on recombinant HDAC-1 it was 3.17 nM. Taken in the same sequence, the figures for `O=C(NO)c1ccc(C(=O)N[C@H](Cc2ccccc2)c2ccccc2)s1` [Example 8f, (R)-thiophene-2,5-dicarboxylic acid 2-[(1,2-diphenyl-ethyl)-amide]5-hydroxyamide] were 40 nM and 1.33 nM. For `COC[C@@H](NC(=O)c1ccc(C(=O)NO)s1)c1ccccc1` [Example 4l, (S)-thiophene-2,5-dicarboxylic acid 2-hydroxyamide 5-[(2-methoxy-1-phenyl-ethyl)-amide]], the 50% inhibitory concentration (IC50) in assay [1] (Homo sapiens, 120 h) amounted to 160 nM; on recombinant HDAC-1 it was 4.04 nM. `COc1ccc([C@H](C)NC(=O)c2ccc(C(=O)NO)s2)cc1` [Example 4i, (S)-thiophene-2,5-dicarboxylic acid 2-hydroxyamide 5-{[1-(4-methoxy-phenyl)-ethyl]-amide}]: the concentration for half-maximal inhibition (IC50) in assay [1] (Homo sapiens, 120 h) came out at 560 nM; on recombinant HDAC-1, 2.6 nM. As to `C[C@@H](NC(=O)c1ccc(C(=O)NO)s1)c1ccc(Br)cc1` [Example 2d, (R)-thiophene-2,5-dicarboxylic acid 2-{[1-(4-bromo-phenyl)-ethyl]-amide}5-hydroxyamide], the IC50 in assay [1] (Homo sapiens, 120 h) is 80 nM; at recombinant HDAC-1, 3.88 nM.

For `C[C@@H](NC(=O)c1ccc(C(=O)NO)s1)c1ccc(F)cc1` [Example 2b, (R)-thiophene-2,5-dicarboxylic acid 2-{[1-(4-fluoro-phenyl)-ethyl]-amide}5-hydroxyamide], the 50% inhibitory concentration (IC50) in assay [1] (Homo sapiens, 120 h) turned out to be 170 nM; at recombinant HDAC-1, 4.98 nM. Consider `C[C@H](NC(=O)c1ccc(C(=O)NO)s1)c1ccc2ccccc2c1` [Example 4f, (S)-thiophene-2,5-dicarboxylic acid 2-hydroxyamide 5-[(1-naphthalen-2-yl-ethyl)-amide]], for which the IC50 in assay [1] worked out at 920 nM. Regarding `O=C(NO)c1ccc(C(=O)N[C@@H]2CCCc3ccccc32)s1` [Example 2n, (R)-thiophene-2,5-dicarboxylic acid 2-hydroxyamide 5-[(1,2,3,4-tetrahydro-naphthalen-1-yl)-amide]], the half-inhibitory concentration (IC50) came out at 350 nM in assay [1] (Homo sapiens, 120 h) and 2.86 nM on recombinant HDAC-1. For the compound `C[C@H](NC(=O)c1ccc(C(=O)NO)s1)c1ccc(C(C)(C)C)cc1` [Example 10e, (S)-thiophene-2,5-dicarboxylic acid 2-{[1-(4-tert-butyl-phenyl)-ethyl]-amide}5-hydroxyamide], the IC50 in assay [1] (Homo sapiens, 120 h) came to 580 nM; on recombinant HDAC-1 it was 1.39 nM. With `C[C@H](NC(=O)c1ccc(C(=O)NO)s1)c1ccc(Br)cc1` [Example 4d, (S)-thiophene-2,5-dicarboxylic acid 2-{[1-(4-bromo-phenyl)-ethyl]-amide}5-hydroxyamide], in assay [1], the IC50 came out at 880 nM.

Take `COc1cccc([C@H](C)NC(=O)c2ccc(C(=O)NO)s2)c1` [Example 4h, (S)-thiophene-2,5-dicarboxylic acid 2-hydroxyamide 5-{[1-(3-methoxy-phenyl)-ethyl]-amide}]: the half-inhibitory concentration (IC50) at recombinant HDAC-1 is 1.79 nM.

As to `C[C@@H](NC(=O)c1ccc(C(=O)NO)s1)c1ccc(C(C)(C)C)cc1` [Example 8e, (R)-thiophene-2,5-dicarboxylic acid 2-{[1-(4-tert-butyl-phenyl)-ethyl]-amide}5-hydroxyamide], the half-inhibitory concentration (IC50) was 10 nM in assay [1] (Homo sapiens, 120 h) and 1.08 nM at recombinant HDAC-1.

Turning to `O=C(NO)c1ccc(C(=O)N[C@H](CN2CCOCC2)c2ccccc2)s1` [Example 10c, (S)-thiophene-2,5-dicarboxylic acid 2-hydroxyamide 5-[(2-morpholin-4-yl-1-phenyl-ethyl)-amide]], the IC50 at recombinant HDAC-1 amounted to 1.94 nM. Consider `CC[C@H](NC(=O)c1ccc(C(=O)NO)s1)c1ccccc1` [Example 4g, (S)-thiophene-2,5-dicarboxylic acid 2-hydroxyamide 5-[(1-phenyl-propyl)-amide]], for which the IC50 in assay [1] (Homo sapiens, 120 h) came out at 780 nM; on recombinant HDAC-1 it was 3.19 nM.

Take `O=C(NO)c1ccc(C(=O)N[C@@H](CN2CCOCC2)c2ccccc2)s1` [Example 8c, (R)-thiophene-2,5-dicarboxylic acid 2-hydroxyamide 5-[(2-morpholin-4-yl-1-phenyl-ethyl)-amide]]: the half-maximal inhibitory concentration (IC50) in assay [1] (Homo sapiens, 120 h) stood at 630 nM; on recombinant HDAC-1, 4.27 nM. Turning to `C[C@H](NC(=O)c1ccc(C(=O)NO)s1)c1ccc(C(F)(F)F)cc1` [Example 10d, (S)-thiophene-2,5-dicarboxylic acid 2-hydroxyamide 5-{[1-(4-trifluoromethyl-phenyl)-ethyl]-amide}], the concentration for half-maximal inhibition (IC50) was 350 nM in assay [1] (Homo sapiens, 120 h) and 2.69 nM at recombinant HDAC-1. With `C[C@@H](NC(=O)c1ccc(C(=O)NO)s1)c1ccc(Cl)cc1` [Example 2c, (R)-thiophene-2,5-dicarboxylic acid 2-{[1-(4-chloro-phenyl)-ethyl]-amide}5-hydroxyamide], the half-maximal inhibitory concentration (IC50) in assay [1] (Homo sapiens, 120 h) was found to be 50 nM; on recombinant HDAC-1 it was 3.44 nM. Take `C[C@@H](NC(=O)c1ccc(C(=O)NO)s1)c1cccc2ccccc12` [Example 2e, (R)-thiophene-2,5-dicarboxylic acid 2-hydroxyamide 5-[(1-naphthalen-1-yl-ethyl)-amide]]: the IC50 was 40 nM in assay [1] (Homo sapiens, 120 h) and 1.73 nM at recombinant HDAC-1. With `C[C@H](NC(=O)c1ccc(C(=O)NO)s1)c1ccccc1` [Example 4a, (S)-thiophene-2,5-dicarboxylic acid 2-hydroxyamide 5-[(1-phenyl-ethyl)-amide]], in assay [1], the half-inhibitory concentration (IC50) came out at 840 nM.

By IC50 is commonly meant the midpoint of a concentration-inhibition curve.

Source of the values: patent US7098241B2, “Thiophene hydroxamic acid derivatives” (Hoffmann-La Roche Inc., priority 2002, dated 2006).
